# Experimental data: patent US12018021B2 (UCB Biopharma SRL, priority 2018, dated 2024)
# Molecular target: IgE-Tb / sFcεRIα-Y131A-AF488 (Homo sapiens, UniProt P01854, N146Q/N252Q)
# Assay: IgE-Tb / sFcεRIα-Y131A-AF488 FRET assay (protocol for examples 234 to 501)
# Format: binding
# Settings: examples 234 to 501: compound with IgE-Tb 30 minutes before sFcεRIα-Y131A-AF488, incubated 18 hours at room temperature; read-out: Y131A FRET IC50 range
# Procedure: For examples 234 to 501, the assay was conducted according to the following: Each assay reaction was conducted in a volume of 25 μl in a 384-well half-volume plate. 10 point compound serial dilutions (3-fold) were generated in DMSO at a concentration of ×50 that of the final assay concentration (FAC). Compound solutions were then prepared by diluting 10-fold in assay buffer. For the assay, 5l of diluted compound was added to 10 μl of IgE-Tb and incubated for 30 minutes before the addition of 10 μ[…]. FRET reagents FACs were 5 nM IgE-Tb, 25 nM […]. Usually the top FAC of compound in the assay was 10 μM. The final DMSO concentration was 2%. […] The maximum FRET signal (MAX) was measured in wells containing FRET reagents but no compound. The assay was incubated for 18 hours at room temperature, protected from light and evaporation, and with gentle agitation. Measurement of FRET for each well was carried out by exciting at 337 nm and measuring emission at 490/520 nm using a PHERAstar FSX plate reader (BMG Labtech). FRET ratio was calculated as follows: Emission at 520/7Emission at 490×1000. The FRET ratio was used for the data analysis. […] Z' above 0.5 was considered a good assay. Background signal (MIN) was subtracted from all wells. […] Percent inhibition was plotted against compound concentration. IC50 values for each compound were determined using four parameter logistic fit model using the XLFIT5 software package.
# IgE-Tb / sFcεRIα-Y131A-AF488, sequence (P01854 whole entry N146Q/N252Q): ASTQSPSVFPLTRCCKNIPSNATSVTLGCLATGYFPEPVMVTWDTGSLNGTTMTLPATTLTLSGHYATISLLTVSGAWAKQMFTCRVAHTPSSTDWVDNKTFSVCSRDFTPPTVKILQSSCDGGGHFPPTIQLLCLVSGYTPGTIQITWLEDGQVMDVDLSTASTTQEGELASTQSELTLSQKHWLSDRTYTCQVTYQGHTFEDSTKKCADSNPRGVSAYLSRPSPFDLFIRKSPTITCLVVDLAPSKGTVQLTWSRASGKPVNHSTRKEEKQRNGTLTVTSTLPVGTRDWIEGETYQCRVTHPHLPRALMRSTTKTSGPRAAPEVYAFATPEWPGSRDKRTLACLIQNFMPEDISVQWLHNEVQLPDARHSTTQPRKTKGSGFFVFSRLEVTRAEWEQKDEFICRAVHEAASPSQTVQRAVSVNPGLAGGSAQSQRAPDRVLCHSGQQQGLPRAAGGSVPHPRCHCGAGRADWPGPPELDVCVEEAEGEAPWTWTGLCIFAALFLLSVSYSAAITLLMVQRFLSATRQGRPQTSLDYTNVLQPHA
row,Structure (SMILES),IC50
1,"Cn1nc(OC(F)F)cc1Nc1nncn1[C@H]1CCc2sc(NC(=O)C3CC3)c(C(=O)NCC3CC3(F)F)c2C1 (mixture of isomers) [Example 458, (5S)-2-(cyclopropanecarbonylamino)-N-[(2,2-difluorocyclopropyl)methyl]-5-[3-[[5-(difluoromethoxy)-2-methylpyrazol-3-yl]amino]-1,2,4-triazol-4-yl]-4,5,6,7-tetrahydro-1-benzothiophene-3-carboxamide]",< 1000 nM
2,"Cn1nc(C(F)F)cc1Nc1nncn1[C@H]1CCc2sc(NC(=O)C3CC3(F)F)c(C(=O)N[C@H]3C[C@H](F)C3)c2C1 (mixture of isomers) [Example 493, (5S)-2-[(2,2-difluorocyclopropanecarbonyl)amino]-5-[3-[[5-(difluoromethyl)-2-methyl-pyrazol-3-yl]amino]-1,2,4-triazol-4-yl]-N-(trans-3-fluorocyclobutyl)-4,5,6,7-tetrahydrobenzothiophene-3-carboxamide]",< 1000 nM
3,"Cn1nc(C(F)F)cc1Nc1nncn1[C@H]1CCc2sc(NC(=O)C3CC3)c(C(=O)NC3CC34CC4)c2C1 (mixture of isomers) [Example 494, (5S)-2-cyclopropaneamido-5-(3-{[3-(difluoromethyl)-1-methyl-1H-pyrazol-5-yl]amino}-4H-1,2,4-triazol-4-yl)-N-{spiro[2.2]pentan-1-yl}-4,5,6,7-tetrahydro-1-benzothiophene-3-carboxamide]",< 1000 nM
4,"Cn1nc(C(F)F)cc1Nc1nncn1[C@H]1CCc2sc(NC(=O)[C@@H]3C[C@H]3F)c(C(=O)NCC3CC3)c2C1 (racemic) [Example 366, (5S)—N-(cyclopropylmethyl)-5-[3-[[5-(difluoromethyl)-2-methylpyrazol-3-yl]amino]-1,2,4-triazol-4-yl]-2-[[(1RS,2SR)-2-fluorocyclopropanecarbonyl]amino]-4,5,6,7-tetrahydro-1-benzothiophene-3-carboxamide]",< 1000 nM
5,"C[C@H]1c2c(sc(NC(=O)C3CC3)c2C(=O)NCC2CC2)CC[C@@H]1n1cnnc1Nc1cc(C(F)(F)F)nn1C (racemic) [Example 421, (4RS,5RS)-2-(cyclopropanecarbonylamino)-N-(cyclopropylmethyl)-4-methyl-5-[3-[[2-methyl-5-(trifluoromethyl)pyrazol-3-yl]amino]-1,2,4-triazol-4-yl]-4,5,6,7-tetrahydrobenzothiophene-3-carboxamide]",< 1000 nM
6,"Cn1nc(C(F)F)cc1Nc1nncn1[C@H]1CCc2sc(NC(=O)C3CC3)c(C(=O)NC[C@H]3C[C@H](F)C3)c2C1 (racemic) [Example 497, (5S)-2-(cyclopropanecarbonylamino)-5-[3-[[5-(difluoromethyl)-2-methyl-pyrazol-3-yl]amino]-1,2,4-triazol-4-yl]-N-[(3-fluorocyclobutyl)methyl]-4,5,6,7-tetrahydrobenzothiophene-3-carboxamide]",< 1000 nM
7,"C[C@H]1CCCN1C(=O)c1ncn([C@H]2CCc3sc(NC(=O)[C@H]4C[C@H]4F)c(C(=O)NCC4CC4)c3C2)c1N (relative stereo) [Example 259, (5S)-5-[5-amino-4-[(2S)-2-methylpyrrolidine-1-carbonyl]imidazol-1-yl]-N-(cyclopropylmethyl)-2-[[(1R*,2R*)-2-fluorocyclopropanecarbonyl]amino]-4,5,6,7-tetrahydrobenzothiophene-3-carboxamide]",< 1000 nM
8,"Cn1nc(C(F)F)cc1Nc1nncn1[C@H]1CCc2sc(NC(=O)[C@@H]3CC3(F)F)c(C(=O)NC[C@@H]3C[C@@H]3F)c2C1 (relative stereo) [Example 284, (5S)-2-[[(1S*)-2,2-difluorocyclopropanecarbonyl]amino]-5-[3-[[5-(difluoromethyl)-2-methyl-pyrazol-3-yl]amino]-1,2,4-triazol-4-yl]-N-[[(1S,2S)-2-fluorocyclopropyl]methyl]-4,5,6,7-tetrahydrobenzothiophene-3-carboxamide [* or R]]",< 1000 nM
9,"O=C(NCC1CC1)c1c(NC(=O)C2CC2)sc2c1C[C@@H](n1cnnc1N[C@H]1CN(C(=O)c3ccccc3)CC1(F)F)CC2 (relative stereo) [Example 285, (5S)-5-[3-[[(3S*)-1-benzoyl-4,4-difluoro-pyrrolidin-3-yl]amino]-1,2,4-triazol-4-yl]-2-(cyclopropanecarbonylamino)-N-(cyclopropylmethyl)-4,5,6,7-tetrahydrobenzothiophene-3-carboxamide [* or R]]",< 1000 nM
10,"Cn1nc(C(F)F)cc1Nc1nncn1[C@H]1CCc2sc(NC(=O)[C@@H]3CC34CC4)c(C(=O)NCC3CC3)c2C1 (relative stereo) [Example 311, (5S)—N-(cyclopropylmethyl)-5-[3-[[5-(difluoromethyl)-2-methyl-pyrazol-3-yl]amino]-1,2,4-triazol-4-yl]-2-[[(2R*)-spiro[2.2]pentane-2-carbonyl]amino]-4,5,6,7-tetrahydrobenzothiophene-3-carboxamide [* or S]]",< 1000 nM
11,"Cn1nc(OC(F)F)cc1Nc1nncn1[C@H]1CCc2sc(NC(=O)[C@H]3CC3(F)F)c(C(=O)NCC3CC3)c2C1 (relative stereo) [Example 345, (5S)—N-(cyclopropylmethyl)-2-[[(1R*)-2,2-difluorocyclopropanecarbonyl]amino]-5-[3-[[5-(difluoromethoxy)-2-methylpyrazol-3-yl]amino]-1,2,4-triazol-4-yl]-4,5,6,7-tetrahydro-1-benzothiophene-3-carboxamide (* or S)]",< 1000 nM
12,"Cn1nc(C(F)F)cc1Nc1nncn1[C@H]1CCc2sc(NC(=O)[C@@H]3CC3(F)F)c(C(=O)NCC3CC3)c2C1 (relative stereo) [Example 365, (5S)—N-(cyclopropylmethyl)-2-[[(1R*)-2,2-difluorocyclopropanecarbonyl]amino]-5-[3-[[5-(difluoromethyl)-2-methylpyrazol-3-yl]amino]-1,2,4-triazol-4-yl]-4,5,6,7-tetrahydro-1-benzothiophene-3-carboxamide (* or S)]",< 1000 nM
13,"C[C@@H]1C[C@H]1C(=O)Nc1sc2c(c1C(=O)NCC1CC1)C[C@@H](n1cnnc1Nc1cc(C(F)F)nn1C)CC2 (relative stereo) [Example 370, (5S)—N-(cyclopropylmethyl)-5-[3-[[5-(difluoromethyl)-2-methylpyrazol-3-yl]amino]-1,2,4-triazol-4-yl]-2-[[(1R*,2R*)-2-methylcyclopropanecarbonyl]amino]-4,5,6,7-tetrahydro-1-benzothiophene-3-carboxamide (* or S)]",< 1000 nM
14,"C[C@H]1C[C@H]1C(=O)Nc1sc2c(c1C(=O)NCC1CC1)C[C@@H](n1cnnc1Nc1cc(C(F)F)nn1C)CC2 (relative stereo) [Example 371, (5S)—N-(cyclopropylmethyl)-5-[3-[[5-(difluoromethyl)-2-methylpyrazol-3-yl]amino]-1,2,4-triazol-4-yl]-2-[[(1R*,2S*)-2-methylcyclopropanecarbonyl]amino]-4,5,6,7-tetrahydro-1-benzothiophene-3-carboxamide (*1R,2S or 1S,2R)]",< 1000 nM
15,"Cn1nc(C(F)F)cc1Nc1nncn1[C@H]1CCc2sc(NC(=O)C3CC3)c(C(=O)NC[C@@H]3CC3(C)C)c2C1 (relative stereo) [Example 372, (5S)-2-(cyclopropanecarbonylamino)-5-[3-[[5-(difluoromethyl)-2-methylpyrazol-3-yl]amino]-1,2,4-triazol-4-yl]-N-[[(1R*)-2,2-dimethylcyclopropyl]methyl]-4,5,6,7-tetrahydro-1-benzothiophene-3-carboxamide (* or S)]",< 1000 nM
16,"Cn1nc(OC(F)F)cc1Nc1nncn1[C@H]1CCc2sc(NC(=O)[C@H]3C[C@@H]3F)c(C(=O)N[C@H]3CC34CC4)c2C1 (relative stereo) [Example 376, (5S)-5-[3-[[5-(difluoromethoxy)-2-methylpyrazol-3-yl]amino]-1,2,4-triazol-4-yl]-2-[[(1R,2S)-2-fluorocyclopropanecarbonyl]amino]-N-[(2R*)-spiro[2.2]pentan-2-yl]-4,5,6,7-tetrahydro-1-benzothiophene-3-carboxamide (* or S)]",< 1000 nM
17,"COc1cc(Nc2nncn2[C@H]2CCc3sc(NC(=O)[C@@H]4CC45CC5)c(C(=O)NCC4CC4)c3C2)n(C)n1 (relative stereo) [Example 455, (5S)—N-(cyclopropylmethyl)-5-[3-[(5-methoxy-2-methyl-pyrazol-3-yl)amino]-1,2,4-triazo-4-yl]-2-[[(2R*)-spiro[2.2]pentane-2-carbonyl]amino]-4,5,6,7-tetrahydrobenzothiophene-3-carboxamide (* or S)]",< 1000 nM
18,"COc1cc(Nc2nncn2[C@H]2CCc3sc(NC(=O)[C@H]4C[C@@H]4C)c(C(=O)N[C@@H]4CC45CC5)c3C2)n(C)n1 (relative stereo) [Example 465, (5S)-5-[3-[(5-methoxy-2-methyl-pyrazol-3-yl)amino]-1,2,4-triazol-4-yl]-2-[[(1S,2S)-2-methylcyclopropanecarbonyl]amino]-N-[(2R*)-spiro[2.2]pentan-2-yl]-4,5,6,7-tetrahydrobenzothiophene-3-carboxamide [* or 5]]",< 1000 nM
